Reference: patent US11529342B2, “Sorbic and benzoic acid and derivatives thereof enhance the activity of a neuropharmaceutical” (Los Angeles Biomedical Research Institute at Harbor-UCLA …, priority 2009, dated 2022)
Entries after “also recorded” stand apart in the source; their conditions may differ.

Assays:
rats = assay: Forced swim test (FST); assay type: in vivo; conditions: 500 mg/kg; for Immobility time (%): 5-min test, vehicle 46.94 ± 4.6; for duration of immobility compared to the vehicle control group: FST
Procedure: Following acclimation at least 7 days in the animal facility prior to initiation of behavioral testing, the animals (rats) were subjected to the forced swim test (FST). The method of the […] has been used in previous animal studies of depression, which was modified by Cryan from the Porsolt's FST. (Porsolt et al, 1977; Cryan et al, 2002) The test was performed using a acrylic cylinder (diameter, 20 cm; height, 40 cm) filled to a height of 30 cm with 25° C. water. Rats were processed to a 15-min conditioning swim. Following 24 h after their first exposure, the rats were again placed in the swim apparatus for 5 min. The behavior of rats was observed 5 min after the administration of various drug treatments or 0.9% saline (control). All behavioral testing was conducted between 1600-1800 h. On. the study day, the total periods of immobility during the 5-min testing period were recorded using the EthoVision Basic V 3.1 analysis program (Noldus, Wageningen, Netherlands). For the present experiment, the immobility threshold was set at 15% and a fixed averaging interval of 1 second was chosen to smooth the mobility parameter in EthoVision software. Below the immobile threshold, the animal is considered immobile. Using the settings, the activity of all rats was analyzed automatically and quantitatively for mobility and numbers of crossing vertical central line in the FST.

schizophrenia patients [1] = assay: 6-week randomized double-blind placebo-controlled add-on trial in schizophrenia, efficacy (PANSS, SANS, Quality of Life, GAF); assay type: in vivo, human; conditions: 1000-mg/day adjunctive to atypical antipsychotics, 6 weeks, n=18 per group
Procedure: The research protocol was approved by the Institutional Review Boards (IRB) of the institute. Patients were screened and evaluated by the research psychiatrists. After complete description of the study to the subjects, written informed consent was obtained in line with the IRB's guidelines. The Structured Clinical Interview for DSM-IV was conducted for the diagnosis.
The dosing for the concurrent antipsychotics (all atypical antipsychotics), was an optimal dosing strategy which minimize side effects, especially extrapyramidal side effects (EPS), and can still yield favorable efficacy. […]
All patients were then randomly assigned under double-blind conditions to receive a 6-week trial of placebo, or sodium benzoate (1 grams) daily. […] Patient's compliance and safety were closely monitored by the research psychiatrists and the inpatient nursing staff.
The primary outcome measures were psychopathology changes measured by PANSS (3) and, Scales for the Assessment of Negative symptoms (SANS) (4) total scores, Quality of Life scale (10 items for inpatient use) (1, 5), and Global Assessment of Function (Axis V in DSM IV) (2). […]
Clinical ratings were performed by the research psychiatrists who were trained and experienced in the rating scales. Inter-rater reliability was analyzed with the ANOVA test. […]

Male 129 SVE adult mice [2] = assay: Acoustic startle habituation in mice, with and without amphetamine disruption; assay type: in vivo; conditions: for startle habituation, correction of amphetamine-induced disruption: amphetamine 10 mg/kg 30 minutes before the experiment
From the text: (§1) Therefore, to test the hypothesis that combinational NMDA-enhancing agent treatment has better efficacy than individual agent alone, we tested startle habituation and PPI in animals receiving single NMDA-enhancing agents, sarcosine (N-methylglycine, a glycine transporter-1 inhibitor), benzoate (a D-amino acid oxidase inhibitor), the combination of both agents or the vehicle. We also tested the hypothesis in a well accepted pharmacological model of schizophrenia, amphetamine--disruption of startle habituation and PPI.
For habituation, we present six trials of a single acoustic stimulus to each mouse. To provide a consistent acoustic environment and to mask external noises, maintain a continuous background noise level of 70 dB within each startle chamber. We collected the peak or average response from each mouse on each of six trials, then averaged the six responses together for each mouse. Five more trials at the end of PPI were done. The results were averaged and compared to the original six trials. The difference of startle responses between the initial six and the last five trials were considered the amount of habituation. Analyses include the independent variable (e.g., vehicle or drug treatment) as a factor in analyses of variance (ANOVA) on the dependent measures (difference of the average of the first and last […]).
(§2) There were a total of 36 trials in the experiments. The three prepulse stimuli were with a duration of 20 msec. For each mouse the following metrics were determined: 1) Average response magnitude on pulse--only trials 1 to 6 and 32 to 36; 2)Average response magnitude in each of the four trial types between trials 7 and 31 inclusively (i.e., ten pulse-only trials and five each of the three prepulse variations). The first block of pulse-only trials were analyzed as measures of startle reactivity. The first and last blocks of pulse-only trials were analyzed together in a repeated measure ANOVA to assess habituation of acoustic startle across the test session. The […] (3, 6, or 12 dB above background) derived from trials 7 to 31 were used to assess PPI which was calculated for each mouse as: Percentage score: PPI=100%×{[pulse-only units−(prepulse pulse units)]/(pulse-only units)}.
Male 129 SVE adult mice were first tested at baseline. Four groups of 10 mice each were treated with sarcosine (200 mg/kg), benzoate (100 mg/kg), a combination of both sarcosine and benzoate (same doses as the individual treatment), or with vehicle for one week before the test. The mice continued to receive the drug until one week later when amphetamatine (10 mg/kg) was administered 30 minutes before the experiments.

schizophrenia patients [3] = assay: 6-week add-on trial in schizophrenia, safety and side-effect assessments; assay type: in vivo, human; conditions: 6 weeks
From the text: All patients were then randomly assigned under double-blind conditions to receive a 6-week trial of placebo, or sodium benzoate (1 grams) daily. Patients were randomized in clusters of six subjects, without stratification, through a computer-generated randomization table to receive placebo or active drugs in a 1:1 ratio. To ensure concealment of the randomization assignment, study medication was provided in coded containers with supply of identical-appearing capsules of placebo or either of active compounds. The research pharmacist implemented random allocation and masked treatment assignment was communicated by telephone to research staff. Patients, caregivers, and investigators (except for the investigational pharmacist) were all masked to the assignment. Patient's compliance and safety were closely monitored by the research psychiatrists and the inpatient nursing staff.
Side-effect assessments included Simpson-Angus Rating Scale for EPS (6), Abnormal Involuntary Movement Scale (AIMS) for dyskinesia (7), and Barnes Akathesia Scale (8). Systemic side effects of treatments were evaluated by means of routine physical and neurological examinations, laboratory tests, and reviewed by applying the Udvalg for Kliniske Undersogelser (UKU) Side-effects Rating Scale (9).

Male 129 SVE adult mice [4] = assay: Prepulse inhibition (PPI) of acoustic startle, amphetamine disruption; assay type: in vivo; conditions: for PPI, correction of disruption by amphetamine: sarcosine 200 mg/kg, benzoate 100 mg/kg or both, amphetamine 10 mg/kg 30 minutes before
From the text: as §1
For the systematic investigation of the neurobiological systems that modulate sensorimotor inhibition, startle magnitude was investigated. Startle magnitude is reduced when the pulse stimulus is preceded 30 to 500 msec by a weak prepulse. This inhibition (“gating”) of a motor response elicited by a weak sensory event, termed PPI, provides an operational measure of sensorimotor gating. Prepulse stimuli of 3, 6, or 12 dB above the 70 dB background noise inhibit the startle response elicited by 120-dB pulse stimuli.
Prestimuli used in intranodal studies of sensorimotor gating of acoustic startle are by the delivery of a discrete acoustic prepulse several msec before the startle pulse, with an intensity below startle threshold. […]
as §2, with “The three prepulse stimuli were with a duration of 20 msec.” left out, “units)}. […]” for “units)}.”

[5] = mice, sarcosine 200 mg/kg, benzoate 100 mg/kg or both

Structure (SMILES): O=C([O-])c1ccccc1.[Na+] [Sodium Benzoate, sodium benzoate]
- Immobility time (%) (rats): 40.17 ± 3.3%
- duration of immobility compared to the vehicle control group (rats): decrease the duration of immobility significantly
- positive and negative symptoms and quality of life versus placebo (schizophrenia patients [1]): significantly improve positive and negative symptoms and quality of life than placebo
- startle habituation (difference of startle responses between initial and last trials) (Male 129 SVE adult mice [2]; mice treated one week, sarcosine 200 mg/kg, benzoate 100 mg/kg or both, no amphetamine): close to the effect seen in the combination treatment
- startle habituation, correction of amphetamine-induced disruption (Male 129 SVE adult mice [2]; [5]): partially correct the deficit; also recorded: better than sarcosine and close to effect seen in the combination treatment; also recorded: only partially corrected the deficit; also recorded: better than sarcosine and close to that seen in the combination treatment
- safety and tolerability (schizophrenia patients [3]; adjunctive therapy): good safety and tolerability
- treatment-emergent side effects (schizophrenia patients [3]; benzoate versus placebo): all mild, short-lived, and not warranting medical treatment
- PPI, correction of disruption by amphetamine (Male 129 SVE adult mice [4]): partially corrected

Structure (SMILES): C/C=C/C=C/C(=O)[O-].[K+] [Potassium Sorbate, potassium sorbate]
- Immobility time (%) (rats): 27.64 ± 6.2%
- duration of immobility compared to the vehicle control group (rats): decrease the duration of immobility significantly

Structure (SMILES): CC(N)Cc1ccccc1 (stereo not drawn) [amphetamine, reference compound]
- effect of amphetamine on startle habituation (Male 129 SVE adult mice [2]; mice, amphetamine 10 mg/kg 30 minutes before the experiments): disrupted the habituation
- effect of amphetamine on PPI (Male 129 SVE adult mice [4]; amphetamine 10 mg/kg 30 minutes before the experiments): disrupted the inhibition in all treatments

Structure (SMILES): CNCC(=O)O [sarcosine, N-methylglycine, reference compound]
- startle habituation, correction of amphetamine-induced disruption (Male 129 SVE adult mice [2]; [5]): combination treatment>benzoate>sarcosine
- startle habituation, correction of amphetamine-induced disruption (Male 129 SVE adult mice [2]; mice, sarcosine 200 mg/kg, benzoate 100 mg/kg or both, listed as NMG): partially correct the deficit; also recorded: only partially corrected the deficit
- PPI, correction of disruption by amphetamine (Male 129 SVE adult mice [4]): partially corrected
